From patent US20040019430A1, “Methods and systems for analyzing complex biological systems” (priority 2001, published 2004)

Assays:
[1] = tested on: Saccharomyces cerevisiae wild type strain BY4743; experiment: AF1 combined gene expression and metabolite data mapped to KEGG reactions and pathways; assay type: cell-based; conditions: yeast AF1
Excerpt: In AF1, two different technologies were utilized: gene expression analysis (for examination of mRNA expression) and metabolite analysis. […] As noted previously, existing metabolic databases may be helpful in practicing the methods and systems of the present invention, but many databases include limitations that make their use in data analysis and pathway mapping less than straightforward. […] This caveat to KEGG makes it difficult to pinpoint the correct pathway when attempting to link a gene to a specific pathway. […] The pathway score indicates how meaningful the mapping is, or how likely it is to be correctly indicative of the pathway involved in the perturbation under examination. The method provides a pathway score based on perturbation levels of genes and/or compounds and the information content of each gene and/or compound in the pathway, i.e., a pathway score indicates the extent to which other pathways are mapped to a gene/compound. For example, imagine that two genes are perturbed in a particular experiment. One gene maps to only one pathway, giving a high degree of probability that the perturbed pathway is the one identified in the mapping. The second gene maps to three pathways. In the later example, there is only one-third the probability that the pathway identified in the mapping is the one perturbed. The present invention provides a method for calculating the pathway scores, so that more weight is given to a score of a gene or compound that maps to only one pathway than to a score of a gene or compound that maps to multiple pathways. […] Where n=the total number of genes in the pathway; ipath—count=the number of pathways containing a gene; and j=the number of genes in the pathway that are perturbed. Another factor to be considered when weighting a pathway score is the degree of perturbation. Degree of perturbation can be calculated, for example, based on a number of standard deviations from a norm, and included in an equation such as the one shown above, so that not only the number of pathways is taken into account, but also accounts for the amount of gene transcript or compound present as compared to a control. Compounds were also linked to pathways using the KEGG database. KEGG links 676 compounds measured in AF1 to a total of 92 pathways. Of the 676 compounds under consideration, 77 were detected in the AF1 samples. […] The multiple mapping feature of KEGG makes it difficult to pinpoint the correct pathway when trying to link a compound to a specific pathway. […] A pathway score calculation is applied to the compounds to account for both information content (number of pathways a compound maps to) and perturbation level. The data were then combined to determine the number of reactions showing an enzyme and at least one compound perturbed, and to determine the number of pathways having at least one enzyme and one perturbed compound perturbed. The results of the analysis are represented in Tables 16 and 17, and were difficult to interpret, illustrating that the ability to draw conclusions from compound mapping to pathways is limited when absent additional data.

[2] = tested on: Arabidopsis thaliana plants; experiment: SOA1 phenotypic analysis of herbicide-treated Arabidopsis plants (MIC, Tmic, leaf traits); assay type: in vivo; conditions: for Characteristic symptoms (phenotype): herbicide treated Arabidopsis; for Dev. leafCurling / Dev. leafTwisting / Dev. matureLeafAnthocyanins / Dev. matureLeafChlorosis / Dev. matureLeafNecrosis / Dev. newLeafAnthocyanins / Dev. newLeafChlorosis / Dev. newLeafNecrosis / Dev. pointedLeaves: numeric value standardized to mock treated; for Dev. leafWidth: numeric value standardized to the average response for the mock treated tissues; for Symptom Class: three-week-old Arabidopsis plants treated with herbicide, phenotype classes of FIG. 12
[3] = tested on: Arabidopsis thaliana; experiment: MOA1 phenotypic profiling of Arabidopsis sprayed with unknown and commercial herbicides; assay type: in vivo; conditions: Ward's method
[4] = tested on: Magnaporthe grisea; assay type: cell-based
[5] = tested on: Arabidopsis thaliana; experiment: MOA1 biochemical (metabolite) profiling by LC-MS and GC-MS
[6] = tested on: Saccharomyces cerevisiae wild type strain BY4743; experiment: AF1 metabolite analysis (GC-MS, LC-MS) of yeast cells treated with antifungal drugs; assay type: cell-based; design: Fold Change: scale not given here
[7] = 250 μg/ml (partially inhibitory)

OC(Cn1cncn1)(Cn1cncn1)c1ccc(F)cc1F [Fluconazole]
# Reactions (title: Number Of Pathways Having at Least One Enzyme and One Compound Perturbed) [1]: 15

CP(=O)(O)CCC(N)C(=O)O (centres unmarked) [Glufosinate]
Dev. tMic [2]: 1 | Characteristic symptoms (phenotype) [2]: Chlorosis and leaf curling | Dev. leafCurling [2]: 2 | Dev. leafTwisting [2]: 1 | Dev. matureLeafAnthocyanins [2]: 0 | Dev. matureLeafChlorosis [2]: 3 | Dev. matureLeafNecrosis [2]: 0 | Dev. newLeafAnthocyanins [2]: 0 | Dev. newLeafChlorosis [2]: 3 | Dev. newLeafNecrosis [2]: 0 | Dev. pointedLeaves [2]: 1 | Dev. leafWidth [2]: −2 | Symptom Class [2]: 3 | Hierarchical cluster analysis of the eleven phenotypic characteristics / phenotype [3]: clustered with amitrole | Nitrogen sources M. grisea can utilize in presence of compound [4]: only able to utilize glutamine and glutamate as nitrogen sources | Stress-related (commonly regulated) metabolites ([5]; MOA1, 20 min and 1 hr after spraying): Only a few, if any, stress-related metabolites were observed

O=C(O)CNCP(=O)(O)O [Glyphosate]
Dev. tMic [2]: 2 | Characteristic symptoms (phenotype) [2]: anthocyanin accumulation in the older leaves accompanied by chlorosis of the newly emerging leaves | Dev. leafCurling [2]: 0 | Dev. leafTwisting [2]: 0 | Dev. matureLeafAnthocyanins [2]: 3 | Dev. matureLeafChlorosis [2]: 1 | Dev. matureLeafNecrosis [2]: 3 | Dev. newLeafAnthocyanins [2]: 1 | Dev. newLeafChlorosis [2]: 2 | Dev. newLeafNecrosis [2]: 0 | Dev. pointedLeaves [2]: 1 | Dev. leafWidth [2]: 0 | Symptom Class [2]: 4 | Hierarchical cluster analysis of the eleven phenotypic characteristics / phenotype [3]: clustered with amitrole | Growth of M. grisea with ammonium or glutamine provided [4, 7]: Little growth defect | Growth of M. grisea with nitrate, nitrite, or glutamate as the sole nitrogen source [4, 7]: inhibited growth | Tyrosine level (metabolite downstream from the SOA) ([5]; after one hour): decreased relative to the control after one hour

CC(=O)N1CCN(c2ccc(OCC3COC(Cn4ccnc4)(c4ccc(Cl)cc4Cl)O3)cc2)CC1 (centres unmarked) [Ketoconazole]
# Compounds perturbed by treatment ([6]; P < 0.1, yeast, 2x MIC, two hours): 15 | # Reactions (title: Number Of Pathways Having at Least One Enzyme and One Compound Perturbed) [1]: 24

CC[C@@H]([C@H](C)O)n1ncn(-c2ccc(N3CCN(c4ccc(OC[C@@H]5CO[C@@](Cn6cncn6)(c6ccc(F)cc6F)C5)cc4)CC3)cc2)c1=O [Posaconazole]
Fold Change ([6]; metabolite NacetylD-glucosamine, platform nLC): 0 | Fold Change ([6]; metabolite NacetylD-glucosamine, platform pLC): 0 | Fold Change ([6]; metabolite NacetylL-glutamate, platform pLC): 0 | Fold Change ([6]; metabolite NacetylL-ornithine, platform nLC): 0 | Fold Change ([6]; metabolite niacinamide, platform pLC): 0 | Fold Change ([6]; metabolite nopaline, platform pLC): 0 | Fold Change ([6]; metabolite ornithine3, platform GC): 0.041 | Fold Change ([6]; metabolite orotic acid, platform nLC): 0 | Fold Change ([6]; metabolite phenylpyruvic acid, platform nLC): 0 | Fold Change ([6]; metabolite phosphoenolpyruvate, platform nLC): 0 | Fold Change ([6]; metabolite phosphoenolpyruvate, platform pLC): 0 | Fold Change ([6]; metabolite pinitol, platform nLC): 0 | Fold Change ([6]; metabolite porphobilinogen, platform nLC): 0 | Fold Change ([6]; metabolite progesterone, platform pLC): 0 | Fold Change ([6]; metabolite retinoic acid, platform nLC): 0 | Fold Change ([6]; metabolite riboflavin, platform pLC): 0 | Fold Change ([6]; metabolite salicylic/HObenzoic, platform nLC): 0 | Fold Change ([6]; metabolite shikimic acid, platform nLC): 0 | Fold Change ([6]; metabolite sinapinic acid, platform nLC): 0 | Fold Change ([6]; metabolite sugar-phosphate, platform pLC): 0 | Fold Change ([6]; metabolite thiamine, platform pLC): 0 | Fold Change ([6]; metabolite thymine, platform nLC): 0 | Fold Change ([6]; metabolite thymine, platform pLC): 0 | Fold Change ([6]; metabolite tryptophan, platform pLC): 0 | Fold Change ([6]; metabolite uric acid, platform pLC): 0 | Fold Change ([6]; metabolite urocanic acid, platform nLC): 0 | Fold Change ([6]; metabolite urocanic acid, platform pLC): 0 | Fold Change ([6]; metabolite xanthosine (diH2O), platform pLC): 0 | Fold Change ([6]; metabolite xanthosine-DiH2O, platform nLC): 0 | Fold Change ([6]; metabolite zeatin, platform nLC): 0 | Fold Change ([6]; metabolite zeatin, platform pLC): 0 | # Reactions (title: Number Of Pathways Having at Least One Enzyme and One Compound Perturbed) [1]: 3
